The IC50 is the concentration that gives 50% inhibition.

The subject of assay [1] is HCT-116. The assay can be described thus: Antiproliferative activity against human HCT116 cells after 72 hrs by phosphatase assay. The assay is classed as functional, cell-based. The settings on record: HCT-116, 72 h.
A short description of assay [2]: Cytotoxicity against human HCT116/VM46 cells assessed as reduction in cell viability after 72 hrs by phosphatase assay. The assay is classed as cell-based. The settings on record: HCT-116/VM46, 72 h.
Assay [3] deals with L1210. The assay can be described thus: Antiproliferative activity against mouse L1210 cells after 72 hrs by phosphatase assay. The settings on record: L1210, 72 h. The assay is classed as functional, cell-based.

In the case of `CCCc1ccc(C(=O)N[C@@]2(CC)C[C@H]3CN(CCc4c([nH]c5ccccc45)[C@@](C(=O)OC)(c4cc5c(cc4OC)N(C)[C@H]4[C@@](O)(C(=O)OC)[C@H](OC(C)=O)[C@]6(CC)C=CCN7CC[C@]54[C@@H]76)C3)C2)cc1`, the IC50 was determined as 4.8 nM in assay [1], 35 nM in assay [2] and 4.3 nM in assay [3].
In the same order, the values of `CC[C@]1(NC(=O)c2ccc(OC(F)F)cc2)C[C@H]2CN(CCc3c([nH]c4ccccc34)[C@@](C(=O)OC)(c3cc4c(cc3OC)N(C)[C@H]3[C@@](O)(C(=O)OC)[C@H](OC(C)=O)[C@]5(CC)C=CCN6CC[C@]43[C@@H]65)C2)C1` are 1.7 nM, 17 nM and 5.9 nM.
In the same order, the values of `CC[C@]1(NC(=O)c2ccc(C)c(NC(=O)OC(C)(C)C)c2)C[C@H]2CN(CCc3c([nH]c4ccccc34)[C@@](C(=O)OC)(c3cc4c(cc3OC)N(C)[C@H]3[C@@](O)(C(=O)OC)[C@H](OC(C)=O)[C@]5(CC)C=CCN6CC[C@]43[C@@H]65)C2)C1` are 7.1 nM, 90 nM and 6 nM.
For the compound `CC[C@]1(NC(=O)c2ccc(Br)cc2)C[C@H]2CN(CCc3c([nH]c4ccccc34)[C@@](C(=O)OC)(c3cc4c(cc3OC)N(C)[C@H]3[C@@](O)(C(=O)OC)[C@H](OC(C)=O)[C@]5(CC)C=CCN6CC[C@]43[C@@H]65)C2)C1`, the IC50 in assay [1] was 1.4 nM; in assay [2], 10 nM; in assay [3], 2.7 nM.
In the same order, the values of `CC[C@]1(NC(=O)c2cccc(N3CCOCC3)c2)C[C@H]2CN(CCc3c([nH]c4ccccc34)[C@@](C(=O)OC)(c3cc4c(cc3OC)N(C)[C@H]3[C@@](O)(C(=O)OC)[C@H](OC(C)=O)[C@]5(CC)C=CCN6CC[C@]43[C@@H]65)C2)C1` are 2.8 nM, 30 nM and 4.8 nM.
The like results for `CC[C@]1(NC(=O)c2ccc3c(c2)CCC3)C[C@H]2CN(CCc3c([nH]c4ccccc34)[C@@](C(=O)OC)(c3cc4c(cc3OC)N(C)[C@H]3[C@@](O)(C(=O)OC)[C@H](OC(C)=O)[C@]5(CC)C=CCN6CC[C@]43[C@@H]65)C2)C1` were, in that order, 5.6 nM, 11 nM and 5 nM.
For the compound `CC[C@]1(NC(=O)c2cccc(C)c2)C[C@H]2CN(CCc3c([nH]c4ccccc34)[C@@](C(=O)OC)(c3cc4c(cc3OC)N(C)[C@H]3[C@@](O)(C(=O)OC)[C@H](OC(C)=O)[C@]5(CC)C=CCN6CC[C@]43[C@@H]65)C2)C1`, the figures for the IC50 in assay [1], in assay [2] and in assay [3] were 0.7 nM, 3 nM and 0.5 nM, respectively.
In the same order, the values of `CC[C@]1(NC(=O)C2CCN(C(=O)OC(C)(C)C)CC2)C[C@H]2CN(CCc3c([nH]c4ccccc34)[C@@](C(=O)OC)(c3cc4c(cc3OC)N(C)[C@H]3[C@@](O)(C(=O)OC)[C@H](OC(C)=O)[C@]5(CC)C=CCN6CC[C@]43[C@@H]65)C2)C1` are 45 nM, 500 nM and 50 nM.
The like results for `CC[C@]1(NC(=O)c2ccc3c(c2)OCCN3C)C[C@H]2CN(CCc3c([nH]c4ccccc34)[C@@](C(=O)OC)(c3cc4c(cc3OC)N(C)[C@H]3[C@@](O)(C(=O)OC)[C@H](OC(C)=O)[C@]5(CC)C=CCN6CC[C@]43[C@@H]65)C2)C1` were, in that order, 0.3 nM, 4.9 nM and 0.3 nM.
The like results for `CC[C@]1(NC(=O)c2ccc(NC(=O)OC)cc2)C[C@H]2CN(CCc3c([nH]c4ccccc34)[C@@](C(=O)OC)(c3cc4c(cc3OC)N(C)[C@H]3[C@@](O)(C(=O)OC)[C@H](OC(C)=O)[C@]5(CC)C=CCN6CC[C@]43[C@@H]65)C2)C1` were, in that order, 0.8 nM, 55 nM and 1.5 nM.
As to `CC[C@]1(NC(=O)C2CCc3ccccc3C2)C[C@H]2CN(CCc3c([nH]c4ccccc34)[C@@](C(=O)OC)(c3cc4c(cc3OC)N(C)[C@H]3[C@@](O)(C(=O)OC)[C@H](OC(C)=O)[C@]5(CC)C=CCN6CC[C@]43[C@@H]65)C2)C1` (stereo partly drawn), the values for the IC50 in assay [1], in assay [2] and in assay [3] were 580 nM, 960 nM and 420 nM, respectively.
Consider `CC[C@]1(NC(=O)c2ccc(NC(=O)OC(C)(C)C)cc2)C[C@H]2CN(CCc3c([nH]c4ccccc34)[C@@](C(=O)OC)(c3cc4c(cc3OC)N(C)[C@H]3[C@@](O)(C(=O)OC)[C@H](OC(C)=O)[C@]5(CC)C=CCN6CC[C@]43[C@@H]65)C2)C1`, for which the concentration for half-maximal inhibition (IC50) in assay [1] stood at 0.3 nM; in assay [2], 30 nM; in assay [3], 0.3 nM.
On to `CC[C@]1(NC(=O)c2cncs2)C[C@H]2CN(CCc3c([nH]c4ccccc34)[C@@](C(=O)OC)(c3cc4c(cc3OC)N(C)[C@H]3[C@@](O)(C(=O)OC)[C@H](OC(C)=O)[C@]5(CC)C=CCN6CC[C@]43[C@@H]65)C2)C1`, for which the IC50 in assay [1] was 0.6 nM; in assay [2], 45 nM; in assay [3], 1.8 nM.
In the same order, the values of `CC[C@]1(NC(=O)c2ccc3c(c2)ncn3C)C[C@H]2CN(CCc3c([nH]c4ccccc34)[C@@](C(=O)OC)(c3cc4c(cc3OC)N(C)[C@H]3[C@@](O)(C(=O)OC)[C@H](OC(C)=O)[C@]5(CC)C=CCN6CC[C@]43[C@@H]65)C2)C1` are 0.6 nM, 8 nM and 0.7 nM.
Regarding `CC[C@]1(NC(=O)c2ccc(OC(F)(F)F)cc2)C[C@H]2CN(CCc3c([nH]c4ccc(F)cc34)[C@@](C(=O)OC)(c3cc4c(cc3OC)N(C)[C@H]3[C@@](O)(C(=O)OC)[C@H](OC(C)=O)[C@]5(CC)C=CCN6CC[C@]43[C@@H]65)C2)C1`, the figures for the IC50 in assay [1], in assay [2] and in assay [3] were 0.7 nM, 1 nM and 0.6 nM, respectively.
With `CC[C@]1(NC(=O)c2ccccn2)C[C@H]2CN(CCc3c([nH]c4ccccc34)[C@@](C(=O)OC)(c3cc4c(cc3OC)N(C)[C@H]3[C@@](O)(C(=O)OC)[C@H](OC(C)=O)[C@]5(CC)C=CCN6CC[C@]43[C@@H]65)C2)C1`, the values for the concentration for half-maximal inhibition (IC50) in assay [1], in assay [2] and in assay [3] were 50 nM, 460 nM and 55 nM, respectively.
Turning to `CC[C@]1(NC(=O)c2cccc(SC)c2)C[C@H]2CN(CCc3c([nH]c4ccccc34)[C@@](C(=O)OC)(c3cc4c(cc3OC)N(C)[C@H]3[C@@](O)(C(=O)OC)[C@H](OC(C)=O)[C@]5(CC)C=CCN6CC[C@]43[C@@H]65)C2)C1`, the IC50 was 2.3 nM in assay [1], 20 nM in assay [2] and 5.4 nM in assay [3].
In the same order, the values of `CC[C@]1(NC(=O)c2ccc(CN)cc2)C[C@H]2CN(CCc3c([nH]c4ccccc34)[C@@](C(=O)OC)(c3cc4c(cc3OC)N(C)[C@H]3[C@@](O)(C(=O)OC)[C@H](OC(C)=O)[C@]5(CC)C=CCN6CC[C@]43[C@@H]65)C2)C1` are 3.5 nM, 470 nM and 25 nM.
In the same order, the values of `CC[C@]1(NC(=O)C2Cc3ccccc3C2)C[C@H]2CN(CCc3c([nH]c4ccccc34)[C@@](C(=O)OC)(c3cc4c(cc3OC)N(C)[C@H]3[C@@](O)(C(=O)OC)[C@H](OC(C)=O)[C@]5(CC)C=CCN6CC[C@]43[C@@H]65)C2)C1` are 15 nM, 80 nM and 30 nM.
In the same order, the values of `CC[C@]1(NC(=O)c2nc3ccccc3s2)C[C@H]2CN(CCc3c([nH]c4ccccc34)[C@@](C(=O)OC)(c3cc4c(cc3OC)N(C)[C@H]3[C@@](O)(C(=O)OC)[C@H](OC(C)=O)[C@]5(CC)C=CCN6CC[C@]43[C@@H]65)C2)C1` are 80 nM, 470 nM and 180 nM.
On to `CC[C@]1(NC(=O)c2ccc3cc4ccccc4cc3c2)C[C@H]2CN(CCc3c([nH]c4ccccc34)[C@@](C(=O)OC)(c3cc4c(cc3OC)N(C)[C@H]3[C@@](O)(C(=O)OC)[C@H](OC(C)=O)[C@]5(CC)C=CCN6CC[C@]43[C@@H]65)C2)C1`, for which the figures for the IC50 in assay [1], in assay [2] and in assay [3] were 60 nM, 150 nM and 40 nM, respectively.
With `CC[C@]1(NC(=O)c2ccc3ocnc3c2)C[C@H]2CN(CCc3c([nH]c4ccccc34)[C@@](C(=O)OC)(c3cc4c(cc3OC)N(C)[C@H]3[C@@](O)(C(=O)OC)[C@H](OC(C)=O)[C@]5(CC)C=CCN6CC[C@]43[C@@H]65)C2)C1`, the IC50 in assay [1] worked out at 5.1 nM; in assay [2], 70 nM; in assay [3] it was 5.4 nM.
The like results for `CC[C@]1(NC(=O)c2ccc(OC)c(C)c2)C[C@H]2CN(CCc3c([nH]c4ccccc34)[C@@](C(=O)OC)(c3cc4c(cc3OC)N(C)[C@H]3[C@@](O)(C(=O)OC)[C@H](OC(C)=O)[C@]5(CC)C=CCN6CC[C@]43[C@@H]65)C2)C1` were, in that order, 0.7 nM, 5.2 nM and 0.6 nM.
In the same order, the values of `CC[C@]1(NC(=O)c2cccnc2)C[C@H]2CN(CCc3c([nH]c4ccccc34)[C@@](C(=O)OC)(c3cc4c(cc3OC)N(C)[C@H]3[C@@](O)(C(=O)OC)[C@H](OC(C)=O)[C@]5(CC)C=CCN6CC[C@]43[C@@H]65)C2)C1` are 0.6 nM, 50 nM and 0.7 nM.
Take `CC[C@]1(NC(=O)c2ccc3ncccc3c2)C[C@H]2CN(CCc3c([nH]c4ccccc34)[C@@](C(=O)OC)(c3cc4c(cc3OC)N(C)[C@H]3[C@@](O)(C(=O)OC)[C@H](OC(C)=O)[C@]5(CC)C=CCN6CC[C@]43[C@@H]65)C2)C1`: the IC50 was found to be 0.6 nM in assay [1], 4.9 nM in assay [2] and 0.6 nM in assay [3].
Regarding `CC[C@]1(NC(=O)c2ccc(SC)cc2)C[C@H]2CN(CCc3c([nH]c4ccccc34)[C@@](C(=O)OC)(c3cc4c(cc3OC)N(C)[C@H]3[C@@](O)(C(=O)OC)[C@H](OC(C)=O)[C@]5(CC)C=CCN6CC[C@]43[C@@H]65)C2)C1`, the IC50 was found to be 0.5 nM in assay [1], 6.8 nM in assay [2] and 0.4 nM in assay [3].
